GI50 and TGI data for 7 compounds are collected here from PubChem BioAssay (NCI).

Values joined by “and” are separate entries in the source; they are usually repeats but may differ in a detail not shown here. Equal entries are not always repeated.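 Assay format: 96-well plates, 48-hour exposure. GI50 marks 50% less growth. The concentration for full growth arrest is given as TGI.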

Assay in all cases: NCI tumour cell line growth inhibition, 48 h
The test system of experiment [1] is A549 NSCLC.
Experiment [2] relates to HCT-116 colon.
Experiment [3] has as its system HL-60(TB) leukemia.
For experiment [4], the system named is MALME-3M melanoma.
The test system of experiment [5] is NCI-H23 lung.
The test system of experiment [6] is NCI-H522 lung.
In experiment [7] the test system is NCI/ADR-RES ovarian.
The subject of experiment [8] is SK-MEL-28 melanoma.
For experiment [9], the system named is SR leukemia.
The subject of experiment [10] is UO-31 renal.

With `C=C1C(=O)O[C@H]2[C@H]1CC/C(COC(=O)NCc1ccc(Cn3c(=O)sn(-c4ccc(OC)cc4)c3=O)cc1)=C\CC[C@@]1(C)O[C@@H]21`, the GI50 in experiment [1] was 15.2 µM; in experiment [2], 1.93 µM; in experiment [3], 2.12 µM; in experiment [4] it was 1.81 µM; in [5], 2.97 µM; in experiment [6], 1.67 µM. Further, the GI50 was 12.3 µM in experiment [7], 1.97 µM in experiment [8], 0.535 µM in experiment [9] and 1.56 µM in experiment [10]. Besides, the TGI in experiment [1] stood at 29.1 µM; in experiment [2] it was 3.78 µM; in experiment [3], 5.48 µM; in experiment [4], 3.76 µM; in [5], 9.9 µM; in experiment [6], 3.1 µM. Further, the TGI in [7] was found to be 28.8 µM; in experiment [8], 4.1 µM; in experiment [9], 5.2 µM; in experiment [10] it was 2.94 µM.
As for `COc1ccc2nc(NC(=O)CSc3nnc4n3S(=O)(=O)c3ccccc3N4c3ccccc3)sc2c1`, the GI50 in [1] was above 100 µM; in experiment [2], 94.1 µM; in experiment [3] it was 91.5 µM; in [4], above 100 µM; in experiment [5], above 100 µM; in experiment [6], 30.4 µM. In addition, the GI50 in [7] was above 100 µM; in [8], above 100 µM; in [9], 47.4 µM; in experiment [10], above 100 µM. For the same compound, the TGI in experiment [1], in experiment [2], in [3], in [4], in experiment [5] and in [6] was above 100 µM in each case. Also, the TGI in [7], in experiment [8], in [9] and in experiment [10] was above 100 µM throughout.
Take `COc1cc(/C(C#N)=C/c2nc3c(N4CCOCC4)nc(Cl)nc3n2C)cc(OC)c1OC`: the GI50 in experiment [1], in experiment [2], in experiment [3], in experiment [4], in [5] and in experiment [6] was below 0.01 µM each time. Besides, the GI50 in experiment [7] is below 0.01 µM; in experiment [8], 1.03 µM; in [9], below 0.01 µM; in experiment [10], below 0.01 µM. Also, the TGI in [1] is above 45.5 µM; in experiment [2] it was 0.464 µM; in experiment [3] it was below 0.01 µM; in experiment [4], 20.8 µM; in [5] it was above 35.4 µM; in experiment [6] it was 2.88 µM. For the same compound, the TGI was 5.56 µM in experiment [7], above 64.8 µM in [8] and 5.17 µM in [10].
Turning to `O=C1NC(=NC(CO)Cc2ccccc2)S/C1=C\c1ccc2ncccc2c1` (centres undefined), the GI50 in experiment [1] was 16.4 µM and 2.96 µM; in experiment [2] it was 9.89 µM and 1.13 µM; in experiment [3], 9.76 µM and 3.88 µM; in experiment [4], 12 µM and 6.19 µM; in experiment [5], 17.7 µM and 2.23 µM; in experiment [6] it was 8.38 µM and 2.85 µM. For the same compound, the GI50 in experiment [7] was above 25 µM; in experiment [8], > 23.7 µM and 7.24 µM; in experiment [9] it was 6.94 µM and 0.888 µM; in experiment [10], 16.4 µM and 5.82 µM. In addition, the TGI in experiment [1] is above 25 µM; in experiment [2], above 25 µM; in experiment [3] it was > 25 µM and 14.3 µM; in experiment [4], above 25 µM; in [5] it was above 25 µM; in experiment [6], > 25 µM and 10 µM. Further, the TGI is above 25 µM in [7]; > 25 µM and 24.4 µM in [8]; > 22.6 µM and 5.23 µM in experiment [9]; > 25 µM and 16.8 µM in [10].
In the case of `CCn1c(-c2nonc2N)nc2c(C#CC(C)(C)O)nc(OC[C@@H](N)c3ccccc3)cc21`, the GI50 in experiment [1] was 4.36 µM; in experiment [2], 4.13 µM; in experiment [3] it was 5.23 µM; in experiment [4], 5.46 µM; in experiment [5], 5.13 µM; in [6] it was 4.28 µM. For the same compound, the GI50 in experiment [7] was 5.16 µM; in [8], 4.85 µM; in [9], 5.67 µM; in experiment [10], 5.08 µM. For the same compound, the TGI came out at 9.18 µM in experiment [1]; 7.63 µM in experiment [2]; 10.3 µM in experiment [3]; 9.77 µM in experiment [4]; 10.8 µM in experiment [5]; 7.9 µM in [6]. Also, the TGI in experiment [7] was 11.7 µM; in experiment [8], 8.47 µM; in [9], 16.8 µM; in [10] it was 9.4 µM.
On to `CN(C)c1cc(NN=C(c2ccc(O)cc2)c2ccc(O)cc2)c([N+](=O)[O-])cc1[N+](=O)[O-]`, for which the GI50 in experiment [1] was 4.45 µM; in [2], 5.14 µM; in [3] it was 4.98 µM; in experiment [4], 13.7 µM; in [5], 6.46 µM; in [6] it was 10.5 µM. For the same compound, the GI50 was 5.3 µM in [7], 2.85 µM in experiment [8], 3.15 µM in experiment [9] and 5.32 µM in experiment [10]. In addition, the TGI in [1] is 18.5 µM; in [2], 21.1 µM; in experiment [3], 55.8 µM; in experiment [4], 28 µM; in [5], 23.1 µM; in experiment [6] it was 38.4 µM. The TGI in experiment [7] was found to be 27 µM; in [8], 10.5 µM; in experiment [9] it was 22.8 µM; in [10], 20.5 µM.
Take `CCN(Cc1ccc(F)cc1)c1cc(Cl)c(CO)c(Cl)c1`: the GI50 is 12.3 µM in [1]; 5.15 µM in [2]; 13 µM in experiment [3]; 17.8 µM in [4]; 13 µM in experiment [5]; 10.8 µM in experiment [6]. For the same compound, the GI50 in experiment [7] was 13.7 µM; in [8] it was 17.3 µM; in [9], 15.4 µM; in experiment [10], 12.2 µM. Also, the TGI in experiment [1] was 29.1 µM; in experiment [2], 18.7 µM; in experiment [3] it was 32.6 µM; in experiment [4], 36.1 µM; in experiment [5] it was 28.8 µM; in [6], 25.7 µM. Besides, the TGI in [7] came to 31.4 µM; in [8], 31.5 µM; in experiment [9], 39.6 µM; in experiment [10], 25.4 µM.
